In patent publication US20040180917A1, “Novel tricyclic dihydro-quinoline derivatives, method for preparing same and pharmaceutical compositions containing the same” (priority 2001, published 2004):

Tested on: L1210
Assay: In vitro cytotoxicity, Microculture Tetrazolium Assay, L1210
Format: cell-based
Details: L1210 murine leukaemia, incubated for 2 days; read-out: IC50 (concentration of cytotoxic agent which inhibits proliferation of the treated cells by 50%)
Experimental: Three cell lines were used:
The cells are cultured in RPMI 1640 complete culture medium containing 10% foetal calf serum, 2 mM glutamine, 50 units/ml of penicillin, 50 μg/ml of streptomycin and 10 mM Hepes, pH=7.4. The cells are distributed on microplates and are exposed to the cytotoxic compounds. The cells are then incubated for 2 days (L1210) or 4 days (A549, HT29). The number of viable cells is then quantified by a colorimetric assay, the Microculture Tetrazolium Assay (Cancer Res. 1987, 47, 939-942).

COc1cc(C2C3=C(COC3=O)Nc3c2ccc2ccc(O)cc32)cc(OC)c1OC (stereo not shown) [Example 4]
IC50: 7 nM
